For experiment [1], the system named is wheals induced by intradermal injections of histamine. Kind of experiment: reduction of wheals induced by intradermal injections of histamine in guinea pigs. The following applies: Cavia porcellus, po, 1 h, orally administered one hour prior to histamine injection, intradermal injections of 1γ each of histamine, read-out: ED50 (amount required to reduce by 50% wheals induced by intradermal histamine). Format: in vivo, guinea pig.

For experiment [2], the system named is aerosol antigen induced bronchial spasms and death. Kind of experiment: prevention of aerosol antigen induced bronchial spasms and death in the guinea pig. Type of experiment: in vivo. Conditions: Cavia porcellus, po, orally, read-out: minimal amount required to prevent aerosol antigen induced bronchial spasms and death. From the text: The minimal amounts of the compounds of Examples 5 and 9 required to prevent aerosol antigen induced bronchial spasms and death in the guinea pig are respectively 4.0 and 8.0 milligrams per kilogram of body weight orally.

The source of these data is patent US4180583A, “Olefinic 4-substituted piperidino derivatives as therapeutics” (Richardson-Merrell Inc., priority 1978, dated 1979).

Each structure is given as a SMILES string. Structures can show the parent of a compound that is named as a salt.

As for `Fc1ccc(C=CCCN2CCC(C(c3ccccc3)c3ccccc3)CC2)cc1` [Example 2, 4-(Diphenylmethyl)-1-[4-(p-fluorophenyl)-3-butenyl]-piperidine hydrochloride hemihydrate], the ED50 (commonly the midpoint of the dose-response relation) in experiment [1] was determined as 14.4 mg/kg.
For the compound `Cl.O=C(CCCN1CCC(=C(c2ccccc2)c2ccccc2)CC1)c1cccs1` [Example 5, 4-[4-(Diphenylmethylene)piperidino]-1-(2-thienyl)-1-butanone hydrochloride], the ED50 in experiment [1] is 3.1 mg/kg. For the same compound, the minimal effective dose in experiment [2] is 4 mg/kg.
As to `CC(C)(C)c1ccc(C(=O)CCCN2CCC(=C(c3ccccc3)c3ccccc3)CC2)cc1.Cl` [Example 9, 4'-tert-Butyl-4-[4-(diphenylmethylene)piperidino]butyrophenone hydrochloride], the ED50 in experiment [1] came to 4 mg/kg. Also, the minimal effective dose in experiment [2] was 8 mg/kg.
